The test system of series [1] is authentic EBOV (EBOV-Zaire 1995). As to the kind of experiment: microbe, parasite or virus in culture. The series is classed as cell-based, Ebola virus. Particulars: Zaire ebolavirus, Vero, 48 h, read-out: infectious EBOV-Z IC50.
A further series relates to rVSV-EBOV GP. Description: microbe, parasite or virus in culture. Type of series: cell-based, Zaire Ebolavirus. Particulars: Zaire ebolavirus, read-out: rVSV-EBOV IC50.
A short description of the next series: in vitro. Particulars: African green monkey.

Each structure is given as a SMILES string.

The term IC50 denotes the midpoint of a concentration-inhibition curve.

As to `CN1CCN(c2cccc(NC(c3ccccc3)c3ccccc3)c2)CC1` [MBX 3567, 1-(benzhydrylamino)-3-(4-methylpiperazin-1-yl)benzene], the IC50 in series [1] is 4.1 µM; with rVSV-EBOV GP it was 2.5 µM. For the same molecule, the CC50 in the series “in vitro” was determined as 19 µM.
Turning to `O=[N+]([O-])c1ccc(N2CCN(Cc3ccncc3)CC2)cc1NC(c1ccccc1)c1ccccc1` [MBX 3562, 1-(benzhydrylamino)-5-[4-(pyridin-4-ylmethyl)piperazin-1-yl]-2-nitrobenzene], the IC50 amounted to 3.1 µM in series [1] and 5.6 µM in the series on rVSV-EBOV GP. Besides, the CC50 in the series “in vitro” was > 200 µM.
Consider `CCN(CC)c1ccc([N+](=O)[O-])c(NC(c2ccccc2)c2ccccc2)c1` [MBX 3696, 2-benzhydrylamino-4-(diethylamino)nitrobenzene], for which the IC50 with rVSV-EBOV GP is > 25 µM. In the series “in vitro”, the CC50 is > 100 µM.
Turning to `O=[N+]([O-])c1ccc(N2CCNCC2)cc1NC(c1ccccc1)c1ccccc1` [MBX 3556, 1-(benzhydrylamino)-5-(piperazin-1-yl)-2-nitrobenzene], the results for the IC50 (in series [1]; with rVSV-EBOV GP) were 1.1 µM and 1.4 µM, respectively. Further, the CC50 in “in vitro” came out at 5.2 µM.
Turning to `CN1CCCN(c2ccc([N+](=O)[O-])c(NC(c3ccccc3)c3ccccc3)c2)CC1` [MBX 3700, 2-benzhydrylamino-4-(4-methyl-1,4-diazepan-1-yl)-1-nitrobenzene], the IC50 with rVSV-EBOV GP was < 0.1 µM. The same molecule registered a CC50 in “in vitro” of 7.6 µM.
For `c1ccc(C(c2ccccc2)n2cnc3ccc(-c4ccncc4)cc32)cc1` [MBX 4278, 1-benzhydryl-6-(pyridin-4-yl)-1H-benzo[d]imidazole] the same measures were 8.98 µM and 4.2 µM.
For `O=[N+]([O-])c1ccc(N2CCN(c3ccccc3)CC2)cc1NC(c1ccccc1)c1ccccc1` [MBX 3624, 2-benzhydrylamino-4-(4-phenylpiperazin-1-yl)nitrobenzene] the same measures were > 25 µM and > 100 µM.
`CN1CCN(c2ccc([N+](=O)[O-])c(NC(c3ccccc3)c3ccccc3)c2)CC1=O` [MBX 3695, 2-benzhydrylamino-4-(4-methyl-3-oxopiperazin-1-yl)nitrobenzene]: in the series on rVSV-EBOV GP, the IC50 turned out to be 16 µM. Moreover, the CC50 in the series “in vitro” was > 100 µM.
On the same counts, the results for `CN1CCN(c2ccc3ncn(C(C)(C)c4ccccc4)c3c2)CC1` [MBX 4213, 6-(4-methylpiperazin-1-yl)-1-(2-phenylpropan-2-yl)-1H-benzo[d]imidazole] are 200 µM and > 200 µM.
For the molecule `CN1CCN(c2ccc([N+](=O)[O-])c(NC(c3ccccc3)c3cccnc3)c2)CC1` (stereo not drawn) [MBX 3648, 2-[(pyridin-3-yl)(phenyl)methylamino]-4-(4-methylpiperazin-1-yl)nitrobenzene], the IC50 with rVSV-EBOV GP is > 25 µM. The CC50 in “in vitro” amounted to 17 µM.
Take `CN1CCN(c2ccc([N+](=O)[O-])c(NC(c3ccccc3)c3ccccn3)c2)CC1` (stereo not drawn) [MBX 3647, 2-[(pyridin-2-yl)(phenyl)methylamino]-4-(4-methylpiperazin-1-yl)nitrobenzene]: the IC50 with rVSV-EBOV GP is > 25 µM. For the same molecule, in “in vitro”, the CC50 was > 100 µM.
Consider `CN1CCN(c2ccc([N+](=O)[O-])c(NC(c3ccccc3)c3ccc(Cl)cc3)c2)CC1` (stereo not drawn) [MBX 3644, 2-[(4-chlorophenyl)(phenyl)methylamino]-4-(4-methylpiperazin-1-yl)nitrobenzene], for which the IC50 in the series with rVSV-EBOV GP amounted to 1.4 µM. The CC50 in “in vitro” was determined as 18 µM.
On the same counts, the results for `O=[N+]([O-])c1ccc(N2CCC(N3CCCCC3)CC2)cc1NC(c1ccccc1)c1ccccc1` [MBX 3747, 2-(benzhydrylamino)-4-[(1,4′-bipiperidin)-1′-yl]-1-nitrobenzene] are 0.58 µM and 7.5 µM.
For `COc1ccc(C(Nc2cc(N3CCN(C)CC3)ccc2[N+](=O)[O-])c2ccccc2)cc1` (stereo not drawn) [MBX 3642, 2-[(4-methoxyphenyl)(phenyl)methylamino]-4-(4-methylpiperazin-1-yl)nitrobenzene] the same measures were > 25 µM and 33 µM.
`Cc1ccc(C(Nc2cc(N3CCN(C)CC3)ccc2[N+](=O)[O-])c2ccccc2)cc1` (stereo not drawn) [MBX 3687, 2-[(phenyl)(p-tolyl)methylamino]-4-(4-methylpiperazin-1-yl)nitrobenzene]: the IC50 in the series on rVSV-EBOV GP stood at 2.2 µM. The molecule further displayed a CC50 in “in vitro” of 16 µM.
As to `CN1CCN(c2ccc3[nH]c(=O)n(C(c4ccccc4)c4ccccc4)c3c2)CC1` [MBX 3526, 1-benzhydryl-6-(4-methylpiperazin-1-yl)-1H-benzo[d]imidazol-2(3H)-one], the IC50 with rVSV-EBOV GP came to 2.9 µM. In the series “in vitro”, this molecule yielded a CC50 of 26 µM.
For `CN1CCC(N(C)c2ccc([N+](=O)[O-])c(NC(c3ccccc3)c3ccccc3)c2)CC1` [MBX 3742, 2-(benzhydrylamino)-4-[methyl(1-methylpiperidin-4-yl)amino]-1-nitrobenzene] the same measures were 1.5 µM and 3.3 µM.
For `CCOC(=O)CN1CCN(c2ccc([N+](=O)[O-])c(NC(c3ccccc3)c3ccccc3)c2)CC1` [MBX 3947, 2-(benzhydrylamino)-4-[4-(2-ethoxy-2-oxoethyl)piperazin-1-yl]-1-nitrobenzene] the same measures were 18 µM and > 100 µM.
On the same counts, the results for `O=[N+]([O-])c1ccc(N2CCSCC2)cc1NC(c1ccccc1)c1ccccc1` [MBX 3699, 2-benzhydrylamino-4-thiomorpholino-1-nitrobenzene] are > 25 µM and > 100 µM.
As to `O=[N+]([O-])c1ccc(N2CCOCC2)cc1NC(c1ccccc1)c1ccccc1` [PPZ-10], the IC50 in the series with rVSV-EBOV GP came out at 5.5 µM. In “in vitro”, the CC50 is > 100 µM.
Turning to `CN1CCN(c2ccc([N+](=O)[O-])c(NC(c3ccccc3)c3ccncc3)c2)CC1` (stereo not drawn) [MBX 3670, 2-[(pyridin-4-yl)(phenyl)methylamino]-4-(4-methylpiperazin-1-yl)nitrobenzene], in the series on rVSV-EBOV GP, the IC50 turned out to be 4.5 µM. Moreover, the CC50 in “in vitro” was determined as 45 µM.
Consider `O=[N+]([O-])c1ccc(N2CCCCC2)cc1NC(c1ccccc1)c1ccccc1` [MBX 3702, 2-benzhydrylamino-4-(piperidin-1-yl)-1-nitrobenzene], for which, in the series with rVSV-EBOV GP, the IC50 was > 25 µM. Moreover, in “in vitro”, the CC50 was > 100 µM.
Consider `CN1CCN(c2ccc([N+](=O)[O-])c(NC(=O)c3ccccc3)c2)CC1` [MBX 4328, N-[5-(4-methylpiperazin-1-yl)-2-nitrophenyl]benzamide], for which, in the series on rVSV-EBOV GP, the IC50 amounted to 11.5 µM. This molecule also showed a CC50 in the series “in vitro” of 60 µM.
Consider `c1ccc(C(c2ccccc2)n2cnc3cnc(N4CCNCC4)cc32)cc1` [MBX 4215A, 1-benzhydryl-6-(piperazin-1-yl)-1H-imidazo[4,5-c]pyridine bis(2,2,2-trifluoroacetate)], for which the IC50 in the series with rVSV-EBOV GP worked out at 2.8 µM. In “in vitro”, this molecule gave a CC50 of 94 µM.
For `c1ccc(C(c2ccccc2)n2cnc3ccc(-c4cccnc4)cc32)cc1` [MBX 4294, 1-benzhydryl-6-(pyridin-3-yl)-1H-benzo[d]imidazole] the same measures were 15.6 µM and 59 µM.
For `c1ccc(C(c2ccccc2)n2cnc3ccc(N4CCN5CCCCC5C4)cc32)cc1` (stereo not drawn) [MBX 4211, 2-(1-benzhydryl-1H-benzo[d]imidazol-6-yl)octahydro-1H-pyrido[1,2-a]pyrazine] the same measures were 2 µM and 195 µM.
For the molecule `c1ccc(C(c2ccccc2)n2cnc3ccc(N4CCNCC4)nc32)cc1` [MBX 4214, 3-benzhydryl-5-(piperazin-1-yl)-3H-imidazo[4,5-b]pyridine], the IC50 in the series with rVSV-EBOV GP worked out at 3 µM. The molecule also returned a CC50 in “in vitro” of 105 µM.
On the same counts, the results for `O=[N+]([O-])c1ccc(-c2cccnc2)cc1NC(c1ccccc1)c1ccccc1` [MBX 4279, N-benzhydryl-2-nitro-5-(pyridin-3-yl)aniline] are 12.4 µM and 49 µM.
On the same counts, the results for `O=[N+]([O-])c1ccc(N2CCN(CCc3ccccc3)CC2)cc1NC(c1ccccc1)c1ccccc1` [MBX 3623, 2-benzhydrylamino-4-(4-phenethylpiperazin-1-yl)nitrobenzene] are > 25 µM and > 100 µM.
On the same counts, the results for `CCOC(=O)CC(Nc1cc(N2CCN(C)CC2)ccc1[N+](=O)[O-])c1ccccc1` (stereo not drawn) [MBX 4329, ethyl 3-((5-(4-methylpiperazin-1-yl)-2-nitrophenyl)amino)-3-phenylpropanoate] are 10.4 µM and 45 µM.
For the molecule `CN1CCN(c2ccc([N+](=O)[O-])c(NC3(c4ccccc4)CC3)c2)CC1` [MBX 4295, 5-(4-methylpiperazin-1-yl)-2-nitro-N-(1-phenylcyclopropyl)aniline], the half-inhibitory concentration (IC50) in the series on rVSV-EBOV GP was found to be 16.2 µM. Also, the CC50 in “in vitro” stood at 58 µM.
On the same counts, the results for `COc1cccc(C(Nc2cc(N3CCN(C)CC3)ccc2[N+](=O)[O-])c2ccccc2)c1` (stereo not drawn) [MBX 3641, 2-[(3-methoxyphenyl)(phenyl)methylamino]-4-(4-methylpiperazin-1-yl)nitrobenzene] are > 25 µM and 26 µM.
On the same counts, the results for `CN(C)C1CCN(c2ccc([N+](=O)[O-])c(NC(c3ccccc3)c3ccccc3)c2)CC1` [MBX 3749, 2-(benzhydrylamino)-4-[4-(dimethylamino)piperidin-1-yl]-1-nitrobenzene] are 0.7 µM and 7.7 µM.
Regarding `COc1ccccc1C(Nc1cc(N2CCN(C)CC2)ccc1[N+](=O)[O-])c1ccccc1` (stereo not drawn) [MBX 3635, 2-[phenyl(2-methoxyphenyl)methylamino]-4-(4-methylpiperazin-1-yl)nitrobenzene], in the series with rVSV-EBOV GP, the IC50 worked out at 2.5 µM. Further, the CC50 in “in vitro” turned out to be 14 µM.
For `O=[N+]([O-])c1ccc(-c2ccncc2)cc1NC(c1ccccc1)c1ccccc1` [MBX 4277, N-benzhydryl-2-nitro-5-(pyridin-4-yl)aniline] the same measures were 14.6 µM and 40 µM.
Consider `CN1CCN(c2ccc([N+](=O)[O-])c(NC3(c4ccccc4)CCCC3)c2)CC1` [MBX 4296, 5-(4-methylpiperazin-1-yl)-2-nitro-N-(1-phenylcyclopentyl)aniline], for which the IC50 with rVSV-EBOV GP is 5.89 µM. The CC50 in “in vitro” is > 200 µM.

For the origin of these results see patent US11459308B2 (priority 2016, dated 2022).
